Data published in article PMC7170299, “Design, synthesis, molecular modelling and biological evaluation of novel 3-(2-naphthyl)-1-phenyl-1H-pyrazole derivatives as potent antioxidants and 15-Lipoxygenase inhibitors” (Journal of Enzyme Inhibition and Medicinal Chemistry, 2020).

Columns and labels:
[1] = DPPH radical scavenging assay; conditions: mean ± SEM of three experiments; 30 min, 517 nm
Method: The DPPH scavenging activity of all synthesized compounds was measured as previously described by Nahar et al.[48] with some modifications. Briefly, 100 µL of different concentrations of the tested compounds (12.5, 25, 50, 100, and 200 µg/mL) were pipetted into a 96-well plate. Then, 100 µL of 100-µM DPPH methanolic solution were added to each well and the plate was incubated protected from light at room temperature for 30 min. The absorbance of the solution was measured at λ517 nm.[49] Ascorbic acid was used as the positive control while DMSO was the negative control. The percentage of DPPH scavenging activity was calculated according to the following equation: % of DPPH scavenging=[(Acontrol–Asample)/Acontrol] ×100, where Acontrol is the absorbance of the control reaction (with all reagents except the test compound), and Asample is the absorbance of the test sample. […] All tests were performed in triplicates.

[2] = NO scavenging assay (sodium nitroprusside / Griess reagent); conditions: for NO IC50: mean ± SEM of three experiments, 90 min, 546 nm
Method: The NO scavenging activity of all synthesized compounds was measured as previously described by Ho et al.[50] Briefly, 50 µL of different concentrations of the tested compounds (12.5, 25, 50,100, and 200 µg/mL) were pipetted into a 96-well plate. Then, 50 µL of 10-mM sodium nitroprussides dissolved in phosphate-buffered saline PBS (pH 7.4) were added to each well and the plate was incubated for 90 min at room temperature. Next, an equal volume of Griess reagent (1% of sulphanilamide and 0.1% of naphthyl ethylene diamine in 2.5% […]) was added to each well to measure the nitrite content. The absorbance of the formed pink-coloured chromophore was measured at λ 546 nm. DMSO and ascorbic acid were used as the negative and positive control, respectively. All tests were performed in triplicate. The percentage of NO scavenging activity was calculated according to the following equation: % of NO scavenging=[(Acontrol−Asample)/Acontrol]×100 where Acontrol is the absorbance of the control reaction (with all reagents except the test compound), and Asample is the absorbance of the test sample.

[3] = Superoxide scavenging assay (pyrogallol autoxidation); conditions: mean ± SEM of three experiments; pyrogallol autoxidation, 325 nm
Method: The improved pyrogallol autoxidation method was used to determine O2^−. RSA of all synthesized compounds as previously described. Briefly, 50 µL of test compounds (12.5, 25, 50,100, and 200 µg/mL) was added to 2900 µl of […] Tris HCl buffer (0.05 M, pH 7.4) containing 1-mM Na2EDTA. Next, 50 µL of 60-mM pyrogallol in1mM HCl had been thoroughly mixed with the mixture. The absorbance of the reaction mixture was measured at A325 nm every 30 s for 5 min. O2^− RSA was expressed by the oxidation degree of a test group in comparison to that of the control. The absorbance at 325 nm was measured against the Tris-HCl buffer every 30 s for 5 min. The percentage of scavenging effect was calculated using the following equation: O2^− radical scavenging %=[(ΔA325, control/T)−(ΔA325nm, sample/T)/ΔA325nm, control/T]×100 where ΔA325 nm, control is the increase in A325 nm of the reaction mixture without the sample and ΔA325 nm, sample is that for the mixture with the sample; T=5 min. The experiments were performed in triplicate.

Soybean 15-LOX enzyme = target: T1, Soybean 15-LOX enzyme (Glycine max, UniProt P08170); experiment: In vitro lipoxygenase inhibition (Cayman lipoxygenase inhibitor screening assay kit); format: biochemical; conditions: mean ± SEM of three experiments; substrate arachidonic acid
T1 construct: purchased Cayman Chemical 760700
T1 sequence (P08170 1-839): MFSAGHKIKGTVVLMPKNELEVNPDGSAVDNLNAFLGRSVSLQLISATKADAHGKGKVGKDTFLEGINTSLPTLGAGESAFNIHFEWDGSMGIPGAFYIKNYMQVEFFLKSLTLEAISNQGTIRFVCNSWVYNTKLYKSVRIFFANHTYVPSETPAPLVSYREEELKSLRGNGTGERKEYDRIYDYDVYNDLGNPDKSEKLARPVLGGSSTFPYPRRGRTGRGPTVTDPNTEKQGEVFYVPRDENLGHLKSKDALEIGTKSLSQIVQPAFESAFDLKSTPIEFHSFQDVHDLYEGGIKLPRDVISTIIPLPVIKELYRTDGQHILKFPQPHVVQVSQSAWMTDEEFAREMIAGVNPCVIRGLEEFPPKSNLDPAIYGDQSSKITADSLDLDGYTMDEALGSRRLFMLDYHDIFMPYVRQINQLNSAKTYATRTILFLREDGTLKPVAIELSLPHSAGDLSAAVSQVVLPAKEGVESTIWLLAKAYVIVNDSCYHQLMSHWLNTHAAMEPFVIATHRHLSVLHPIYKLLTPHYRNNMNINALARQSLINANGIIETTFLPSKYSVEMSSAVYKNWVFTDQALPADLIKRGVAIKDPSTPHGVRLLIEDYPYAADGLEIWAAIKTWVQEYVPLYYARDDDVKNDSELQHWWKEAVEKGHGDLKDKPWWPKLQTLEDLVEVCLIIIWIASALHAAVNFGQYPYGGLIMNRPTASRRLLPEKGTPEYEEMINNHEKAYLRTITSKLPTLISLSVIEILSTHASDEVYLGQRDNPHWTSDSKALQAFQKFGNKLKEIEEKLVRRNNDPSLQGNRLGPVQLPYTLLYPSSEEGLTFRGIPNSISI
Method: The assay was performed using Cayman’s lipoxygenase inhibitor screening assay kit (Catalog No. 760700, Cayman Chemical, USA) according to the manufacturer’s instructions. Briefly, 90 µL of 15-LOX was pipetted into a 96-well plate. Next, 10 µL of test compound at concentrations (2.5, 5.0 and 10 µM) dissolved in DMSO were added to each well. The reaction was initiated by adding 10 µL substrate (AA) and the plate was placed on a shaker for at least 5 minutes. Finally, 100 µL of chromogen (prepared according to manufacturer’s instructions) was added to each well to stop enzyme catalysis and develop the reaction. 100 µL of Assay buffer (0.1 M Tris-HCl, pH7.4) was used in blank wells. […] The absorbance of the solution was measured at λ 490–500 nm. The percentage inhibition was calculated according to the following equation: % inhibition =[(IA−Ainhibitor sample)/IA]×100 where (IA) is the 100% initial activity and (Ainhibitor sample) is the absorbance of the test sample. Dose–response curve was plotted between % inhibition and the drug concentration. The non-linear dose–response curve was used for calculating drug concentration showing 50% enzyme inhibition.

Compound	DPPH IC50 [1] [µg/mL]	NO IC50 [2] [µg/mL]	IC50 (Soybean 15-LOX enzyme) [nM]	melting point [°C]	Superoxide IC50 [3] [µg/mL]	NO scavenging potency relative to ascorbic acid ([2]; folds that of ascorbic acid) [folds]
COc1ccc(C2=NNC(c3cn(-c4ccccc4)nc3-c3ccc4ccccc4c3)C2)cc1 (stereo not drawn) [Compound 3b, 5-(4-Methoxyphenyl)-3′-naphthalen-2-yl-1′-phenyl-3,4-dihydro-2H,1’H-[3,4′] bipyrazole]	11.70 ± 0.29	147.95 ± 1.32	4600 ± 60	177 to 178	118.65 ± 1.03	
Clc1ccc(C2=NNC(c3cn(-c4ccccc4)nc3-c3ccc4ccccc4c3)C2)cc1 (stereo not drawn) [Compound 3d, 5-(4-Chlorophenyl)-3′-naphthalen-2-yl-1′-phenyl-3,4-dihydro-2H,1’H-[3,4′] bipyrazole]	>200	>200		190 to 191	>200	
Clc1ccc(C2=NNC(c3cn(-c4ccccc4)nc3-c3ccc4ccccc4c3)C2)cc1Cl (stereo not drawn) [Compound 3e, 5-(3,4-Dichlorophenyl)-3′-naphthalen-2-yl-1′-phenyl-3,4-dihydro-2H,1’H-[3,4′]-bipyrazole]	9.63 ± 0.55	175.72 ± 1.41	2530 ± 70	195 to 196	129.12 ± 0.82	
O=C(/C=C/c1cn(-c2ccccc2)nc1-c1ccc2ccccc2c1)c1ccccc1 [Compound 2a, 3-(3-Naphthalen-2-yl-1-phenyl-1H-pyrazole-4-yl)-1-phenyl propenone]	>200	>200		158 to 159	>200	
Cc1ccc(C(=O)/C=C/c2cn(-c3ccccc3)nc2-c2ccc3ccccc3c2)cc1 [Compound 2c, 3-(3-Naphthalen-2-yl-1-phenyl-1H-pyrazol-4-yl)-1-p-tolyl propenone]	192.70 ± 1.63	>200	2800 ± 60	146 to 147	>200	
COc1ccc(C(=O)/C=C/c2cn(-c3ccccc3)nc2-c2ccc3ccccc3c2)cc1 [Compound 2b, 1-(4-Methoxyphenyl)-3-(3-naphthalen-2-yl-1-phenyl-1H-pyrazole-4-yl)-propenone]	182.17 ± 0.99	78.25 ± 1.25	3130 ± 90	187 to 188	>200	
O=C(/C=C/c1cn(-c2ccccc2)nc1-c1ccc2ccccc2c1)c1ccc(Cl)c(Cl)c1 [Compound 2e, 1-(3,4-Dichlorophenyl)-3-(3-naphthalen-2-yl-1-phenyl-1H-pyrazol-4-yl)propenone]	118.99 ± 1.78	11.04 ± 0.72	4630 ± 90	168 to 169	>200	3.4
O=C(/C=C/c1cn(-c2ccccc2)nc1-c1ccc2ccccc2c1)c1ccc(Cl)cc1 [Compound 2d, 1-(4-chlorophenyl)-3-(3-naphthalen-2-yl-1-phenyl-1H-pyrazol-4-yl)propenone]	>200	>200		161 to 162	>200	

Continued, in another order:

DPPH IC50 [1] [µg/mL]	NO IC50 [2] [µg/mL]	IC50 (Soybean 15-LOX enzyme) [nM]	melting point [°C]	Compound	Superoxide IC50 [3] [µg/mL]	NO scavenging potency relative to ascorbic acid ([2]; folds that of ascorbic acid) [folds]
>200	148.08 ± 1.36	1670 ± 30	186 to 187	NC(=S)N1N=C(c2ccc(Cl)cc2)CC1c1cn(-c2ccccc2)nc1-c1ccc2ccccc2c1 (stereo not drawn) [Compound 6d]	>200	
97.17 ± 1.4	37.5 ± 1.36	5530 ± 70	190 to 191	c1ccc(C2=NOC(c3cn(-c4ccccc4)nc3-c3ccc4ccccc4c3)C2)cc1 (stereo not drawn) [Compound 5a, 5-(3-Naphthalen-2-yl-1-phenyl-1H-pyrazol-4-yl)-3-phenyl-4,5-dihydro-isoxazole]	192.37 ± 1.74	
24.42 ± 0.9	179.9 ± 1.31	1830 ± 70	198 to 199	Cc1ccc(C2=NN(c3ccccc3)C(c3cn(-c4ccccc4)nc3-c3ccc4ccccc4c3)C2)cc1 (stereo not drawn) [Compound 4c, 3′-Naphthalen-2-yl-2,1′-diphenyl-5-p-tolyl-3,4-dihydro-2H, 1’H -[3,4′]bipyrazole]	145.7 ± 1.42	
34.39 ± 1.03	>200	2530 ± 90	187 to 188	c1ccc(C2=NN(c3ccccc3)C(c3cn(-c4ccccc4)nc3-c3ccc4ccccc4c3)C2)cc1 (stereo not drawn) [Compound 4a, 3′-Naphthalen-2-yl-2,5,1′-triphenyl-3,4-dihydro-2H,1’H-[3,4′]bipyrazole]	176.14 ± 1.63	
>200	>200		185 to 186	Clc1ccc(C2=NOC(c3cn(-c4ccccc4)nc3-c3ccc4ccccc4c3)C2)cc1 (stereo not drawn) [Compound 5d, 3-(4-Chlorophenyl)-5-(3-naphthalen-2-yl-1-phenyl-1H-pyrazol-4-yl)-4,5-dihydro isoxazole]	>200	
>200	>200		192 to 193	Clc1ccc(C2=NN(c3ccccc3)C(c3cn(-c4ccccc4)nc3-c3ccc4ccccc4c3)C2)cc1 (stereo not drawn) [Compound 4d, 5-(4-Chlorophenyl)-3′-naphthalen-2-yl-2,1′-diphenyl-3,4-dihydro-2H,1'H-[3,4′] bipyrazole]	>200	
